The subject of test [1] is Southern corn rootworm (Diabrotica undecimpuctata howardi Barber). Put plainly: Mite/insect screen, corn rootworm. To be noted: Diabrotica, soil, read-out: CRW results (percent mortality). Format: in vivo. The procedure, abridged:
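Compound in acetone/alcohol with emulsifiers, diluted with water; 1 mL applied to 15 g dry sandy soil holding a presoaked corn seed. After 6–12 h drying, five 2-3 instar larvae added, held at 23° C; percent mortality and phytotoxicity scored after standard exposure periods.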

Test [2] deals with Puccinia recondita tritici (leaf rust). Put plainly: Plant pathology screen (Test 1), leaf rust on wheat. To be noted: in Triticum aestivum, foliar, read-out: LEAF RUST control rating.
Description: (§1) This screen was used to evaluate the efficacy of the present compounds against a variety of different organisms that cause plant diseases.
(§2) The test compounds were formulated for application by dissolving 50 mg of the compound into 1.25 ml of solvent. The solvent was prepared by mixing 50 ml of "Tween 20" (polyoxyethylene (20) sorbitan monolaurate emulsifier) with 475 ml of acetone and 475 ml of ethanol. The solvent/compound solution was diluted to 125 ml with deionized water. The resulting formulation contains 400 ppm test chemical. Lower concentrations were obtained by serial dilution with the solvent-surfactant mixture.
(§3) The formulated test compounds were applied by foliar spray.
(§4) The formulated technical compounds were sprayed on all foliar surfaces of the host plants (or cut berry) to past run-off. Single pots of each host plant were placed on raised, revolving pedestals in a fume hood. Test solutions were sprayed on all foliar surfaces. All treatments were allowed to dry and the plants were inoculated with the appropriate pathogens within 2-4 hours.
(§5) The effectiveness of test compounds in controlling disease was rated using the following scale.
Test [3] has as its system Botrytis cinerea (gray mold). Nature of the test: Plant pathology screen (Test 1), gray mold on grape berries. To be noted: read-out: GRAY MOLD control rating.
Description: as §1, §2
(§6) The formulated test compounds were applied by foliar spray. The following plant pathogens and their corresponding plants were employed.
as §4, §5
Test [4] has as its system Pyricularia oryzae (rice blast). Nature of the test: whole plant or invertebrate. Format: in vivo. Particulars: foliar, read-out: RICE BLAST control rating.
Test [5] concerns Pseudoperonospora cubensis (downy mildew). Nature of the test: Plant pathology screen (Test 1), downy mildew on squash. Particulars: foliar, read-out: DOWN MDEW control rating.
Description: as §2, §6, §4, §5
Test [6] concerns melon aphids (Aphis gossvpii Glover). Nature of the test: Mite/insect screen, melon aphids. Format: in vivo. Particulars: Aphis, read-out: MA results (percent mortality). Put shortly: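 Aphids established on squash cotyledons were sprayed to runoff with compound in acetone/alcohol with sulfonate/nonionic emulsifiers, diluted in water to test concentrations. Leaves dried 1 h. Percent mortality scored after standard exposure periods.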

Test [7] has as its system Twospotted spider mites (Tetranychus urticae Koch). Put plainly: Mite/insect screen, twospotted spider mites. To be noted: Tetranychus urticae, read-out: SM results (percent mortality). Format: in vivo. Put shortly: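 Squash cotyledons infested with mites were sprayed to runoff at 10 psi with compound in acetone/alcohol plus emulsifiers, diluted in water to the stated concentrations. Percent mortality and phytotoxicity were scored after standard exposure periods.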

Test [8] concerns southern armyworm (Spodopetra eridania Cramer). Nature of the test: Mite/insect screen, Southern armyworm. Format: in vivo. To be noted: Spodoptera eridania, read-out: SAW results (percent mortality). The procedure, abridged: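 Compounds in acetone/alcohol with Toximul emulsifiers, diluted in water, sprayed to runoff on squash leaves at 10 psi and dried 1 h. Excised treated leaves fed to southern armyworm larvae in Petri dishes; percent mortality scored after standard exposure.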

Test [9] concerns Erysiphe graminis tritici (powdery mildew). Put plainly: Plant pathology screen (Test 1), powdery mildew on wheat. To be noted: Blumeria graminis, in Triticum aestivum, foliar, read-out: POWD MDEW control rating.
Description: as §2, §3, §4, §5

Where two headings read alike, the source gives them in different places.

In general, mortality refers to the share of the test organisms that died.

Turning to `Cc1oc2ncnc(OC3CN4CCC3CC4)c2c1C` (stereo not shown) [Example 17, 5,6-dimethyl-4-(1-azabicyclo[2.2.2]oct-3-yloxy)furo[2,3-d]pyrimidine], the mortality at 12 ppm in [1] came out at 0%. In addition, in test [1], the mortality at 24 ppm is 0%. In addition, the pest or weed control at 400 µg/mL in test [2], in test [3], in test [4], in test [5] and in test [9] was 0 to 19% throughout. The mortality at 200 ppm in test [6], in test [7] and in [8] was 0% each time. In addition, the mortality at 400 ppm in test [6], in test [7] and in test [8] was 0% throughout.

Consider `Cc1oc2ncnc(OCCc3ccccc3C(F)(F)F)c2c1C` [Example 76, 5,6-dimethyl-4-[2-[2(trifluoromethyl)phenyl]ethoxy]furo[2,3-d]pyrimidine], for which the mortality at 24 ppm in test [1] (CRW rate 24.00 ppm) was determined as 60%. The pest or weed control at 400 µg/mL in test [2] lay in the range of 0 to 19%; in test [3] it was 0 to 19%; in [4] it was 0 to 19%; in test [5], 20 to 89%; in test [9], 90 to 100%. Also, the mortality at 400 ppm in [6] (rate 400 ppm, sprayed leaves) amounted to 0%; in test [7] (rate 400 ppm, sprayed leaves), 0%; in [8] (rate 400 ppm, sprayed leaves) it was 0%.

Consider `CCCCOc1ccc(CCOc2ncnc3oc(C)cc23)cc1` [Example 44, 4-[4-(4-butoxyphenyl)ethoxy]-6-methylfuro[2,3-d]pyrimidine], for which the mortality at 24 ppm in test [1] (CRW rate 24.00 ppm) was 0%. The pest or weed control at 400 µg/mL in [2] is 90 to 100%; in test [3], 0 to 19%; in test [4], 0 to 19%; in test [5], 20 to 89%; in [9], 0 to 19%. Moreover, the mortality at 400 ppm worked out at 0% in [6] (rate 400 ppm, sprayed leaves); 0% in test [7] (rate 400 ppm, sprayed leaves); 0% in test [8] (rate 400 ppm, sprayed leaves).

As for `Cc1oc2ncnc(OCCc3ccc(C(F)(F)F)cc3)c2c1C` [Example 54], the mortality at 12 ppm in test [1] (CRW rate 12.00 ppm) worked out at 0%. Also, the mortality at 24 ppm in test [1] (CRW rate 24.00 ppm) worked out at 0%. Also, the pest or weed control at 400 µg/mL in [2] lay within 90 to 100%; in [3], 0 to 19%; in test [4], 90 to 100%; in test [5] it was 0 to 19%; in test [9] it was 90 to 100%. Also, the mortality at 200 ppm in test [6] (rate 200 ppm, sprayed leaves) is 100%; in test [7] (rate 200 ppm, sprayed leaves), 100%; in test [8] (rate 200 ppm, sprayed leaves) it was 0%. Also, the mortality at 400 ppm was found to be 40% in test [6] (rate 400 ppm, sprayed leaves); 60% in test [7] (rate 400 ppm, sprayed leaves); 40% in test [8] (rate 400 ppm, sprayed leaves).

Turning to `CCCCOc1ccc(CCOc2ncnc3oc(C)c(C)c23)cc1` [Example 45, 5,6-dimethyl-4-[2-[4-(n-butoxy)phenyl]ethoxy]furo[2,3-d]pyrimidine], the mortality at 12 ppm in [1] (CRW rate 12.00 ppm) was 0%. Besides, in test [1] (CRW rate 24.00 ppm), the mortality at 24 ppm came to 0%. For the same compound, the pest or weed control at 400 µg/mL was 90 to 100% in test [2]; 0 to 19% in [3]; 0 to 19% in test [4]; 20 to 89% in test [5]; 20 to 89% in test [9]. The mortality at 200 ppm stood at 90% in test [6] (rate 200 ppm, sprayed leaves); 90% in test [7] (rate 200 ppm, sprayed leaves); 0% in test [8] (rate 200 ppm, sprayed leaves). For the same compound, the mortality at 400 ppm in [6] (rate 400 ppm, sprayed leaves) was determined as 90%; in test [7] (rate 400 ppm, sprayed leaves), 100%; in test [8] (rate 400 ppm, sprayed leaves) it was 0%.

For the compound `Cc1oc2ncnc(OCCCc3cccnc3)c2c1C` [Example 13, 5,6-dimethyl-4-[3-(3-pyridinyl)propoxy]furo[2,3-d]pyrimidine], the mortality at 12 ppm in [1] (CRW rate 12.00 ppm) is 0%. Further, the mortality at 24 ppm in test [1] (CRW rate 24.00 ppm) worked out at 100%. The pest or weed control at 400 µg/mL in test [2], in [3], in test [4], in test [5] and in test [9] was 0 to 19% in each case. Also, the mortality at 200 ppm in [6] (rate 200 ppm, sprayed leaves) amounted to 0%; in test [7] (rate 200 ppm, sprayed leaves), 0%; in [8] (rate 200 ppm, sprayed leaves) it was 0%. In addition, the mortality at 400 ppm stood at 0% in test [6] (rate 400 ppm, sprayed leaves); 0% in test [7] (rate 400 ppm, sprayed leaves); 0% in test [8] (rate 400 ppm, sprayed leaves).

With `Cc1oc2ncnc(NCCc3ccc4ccccc4c3)c2c1C` [Example 22, 5,6-dimethyl-N-[2-(2-naphthyl)ethyl]furo[2,3-d]pyrimidin-4-amine], the mortality at 12 ppm in test [1] (CRW rate 12.00 ppm) came out at 0%. Also, the mortality at 24 ppm in test [1] (CRW rate 24.00 ppm) stood at 0%. For the same compound, the pest or weed control at 400 µg/mL in test [2], in [3], in [4], in [5] and in [9] was 0 to 19% each time. Moreover, the mortality at 200 ppm is 0% in [6] (rate 200 ppm, sprayed leaves); 0% in test [7] (rate 200 ppm, sprayed leaves); 0% in [8] (rate 200 ppm, sprayed leaves). For the same compound, the mortality at 400 ppm is 0% in test [6] (rate 400 ppm, sprayed leaves); 0% in test [7] (rate 400 ppm, sprayed leaves); 0% in test [8] (rate 400 ppm, sprayed leaves).

With `Cc1coc2ncn(CCc3ccc4ccccc4c3)c(=N)c12` [Example 79, 5-methyl-3-[2-(2-naphthyl)ethyl]furo[2,3-d]pyrimidin-4(3H)-imine], the mortality at 24 ppm in [1] (CRW rate 24.00 ppm) came out at 0%. The pest or weed control at 400 µg/mL in test [2] is 20 to 89%; in [3], 0 to 19%; in test [4], 20 to 89%; in [5], 90 to 100%; in [9], 0 to 19%. Besides, the mortality at 400 ppm in test [6] (rate 400 ppm, sprayed leaves) was found to be 0%; in test [7] (rate 400 ppm, sprayed leaves), 0%; in [8] (rate 400 ppm, sprayed leaves), 0%.

Take `Cc1coc2ncnc(NCCc3ccc(Cl)cc3)c12` [Example 11, 5-methyl-N-[2-(4-chlorophenyl)ethyl]furo[2,3-d]pyrimidin-4-amine]: the mortality at 12 ppm in [1] (CRW rate 12.00 ppm) was 0%. For the same compound, in [1] (CRW rate 24.00 ppm), the mortality at 24 ppm was 0%. Also, the pest or weed control at 400 µg/mL in test [2] lay within 90 to 100%; in test [3] it was 0 to 19%; in [4], 90 to 100%; in [5] it was 90 to 100%; in test [9], 20 to 89%. Further, the mortality at 200 ppm worked out at 90% in test [6] (rate 200 ppm, sprayed leaves); 30% in [7] (rate 200 ppm, sprayed leaves); 0% in test [8] (rate 200 ppm, sprayed leaves). Also, the mortality at 400 ppm in test [6] (rate 400 ppm, sprayed leaves) worked out at 0%; in test [7] (rate 400 ppm, sprayed leaves) it was 0%; in [8] (rate 400 ppm, sprayed leaves), 60%.

Regarding `Cc1oc2ncnc(OCCc3ccc4c(c3)OC(F)(F)O4)c2c1C` [Example 70], in test [1] (CRW rate 24.00 ppm), the mortality at 24 ppm is 0%. Also, the pest or weed control at 400 µg/mL in [2], in test [3], in [4], in [5] and in test [9] was 0 to 19% in each case. Also, the mortality at 400 ppm in test [6] (rate 400 ppm, sprayed leaves) turned out to be 0%; in [7] (rate 400 ppm, sprayed leaves), 0%; in [8] (rate 400 ppm, sprayed leaves), 0%.

Consider `Cc1oc2ncnc(NCCSCc3c(F)cccc3Cl)c2c1C` [Example 14, 5,6 dimethyl-N-[2-[[(2-chloro-6-fluorophenyl)methyl]thio]ethyl]furo[2,3-d]pyrimidin-4-amine], for which the mortality at 12 ppm in test [1] (CRW rate 12.00 ppm) was 0%. Moreover, the mortality at 24 ppm in [1] (CRW rate 24.00 ppm) is 0%. Further, the pest or weed control at 400 µg/mL in test [2], in test [3], in [4], in test [5] and in test [9] was 0 to 19% throughout. Also, the mortality at 200 ppm in test [6] (rate 200 ppm, sprayed leaves) turned out to be 0%; in test [7] (rate 200 ppm, sprayed leaves) it was 0%; in test [8] (rate 200 ppm, sprayed leaves), 0%. For the same compound, the mortality at 400 ppm in [6] (rate 400 ppm, sprayed leaves) came out at 0%; in test [7] (rate 400 ppm, sprayed leaves), 0%; in test [8] (rate 400 ppm, sprayed leaves), 0%.

These data come from US5486516A, “Furopyrimidine derivatives” (DowElanco, priority 1993, dated 1996).
